Laboratory results as given in patent US20260091015A1, “TREATING IRON DEFICIENCY WITH FERRIC CARBOXYMALTOSE” (PHARMACOSMOS HOLDING A/S, priority 2018, published 2026).

Columns and labels:
[1] = tested on: vitamin D (25, 1,25, 24,25); test: Vitamin D (25, 1,25, 24,25) levels by LC-MS/MS, trials IDA-04/IDA-05; type: in vivo, human; details: IDA-04 and IDA-05 combined
Protocol: The term “serum vitamin D” as used herein refers to the level of vitamin Ds, in particular 25-hydroxyvitamin D, 1,25-dihydroxyvitamin D, and 24,25-dihydroxyvitamin D, in blood serum as measured by Liquid Chromatography and Tandem Mass Spectrometry (LC-MS/MS).
The trial was a randomized, open-label, comparative trial. […]
The following safety laboratory assessments were analysed: • S-phosphate: inorganic phosphorous forms an ammonium phosphomolybdate complex having the formula (NH4)3[PO4](MoO3)12 with ammonium molybdate in the presence of sulfuric acid. The complex was determined photometrically in the ultraviolet region (340 nm) of the spectrum using the Roche Modular and Cobas Analyzer. • iFGF23 and cFGF23: the human intact FGF23 was measured by the 2nd generation Elisa kit manufactured by Immonotropics, Inc, San Clemente, CA. […] The human C-terminal FGF23 was measured by the Elisa kit manufactured by Immonotropics, Inc, San Clemente, CA. […] After evaporation under nitrogen, the residue was reconstituted and analyzed using Liquid Chromatography (LC) with Tandem Mass Spectrometric detection (MS/MS). […]

[2] = tested on: intact FGF23; details: women with IDA secondary to heavy uterine bleeding; Wolf et al., 2013; cited from earlier work
[3] = Fractional urinary phosphate excretion, spot urine, trials IDA-04/IDA-05; type: in vivo, human; details: FCM vs IIM
Protocol: The term “fractionary urinary excretion of phosphate (FEPi)” (sometimes abbreviated FEPO4) is a measure of how much phosphate is not re-absorbed from the pre-urine in the kidneys, i.e., how much phosphate ends up in the urine as a proportion of how much phosphate the subject has in the blood. It is calculated like this: FEPi=[PO4 (Urine)*Creatinine (Serum)]/[PO4 (Serum)*Creatinine (Urine)]*100. An FEPi of 10-20% (0.1-0.2 fraction) is usually considered to be normal; an FEPi <10% (<0.1 fraction) is usually considered to be low; and an FEPi >20% (>0.2 fraction) is usually considered to be high. Phosphate in urine is measured using the same methodology as for serum.
The trial was a randomized, open-label, comparative trial. Subjects with Iron Deficiency Anaemia (IDA) were randomized 1:1 to one treatment course of one of the following treatments: • Group A: iron isomaltoside 1000 (Monofer®, Pharmacosmos, Holbok, Denmark, termed iron isomaltoside in the following), 1000 mg at baseline • Group B: ferric carboxymaltose (Ferinject®/Injectafer®, Vifor Inc, Switzerland), 750 mg at baseline and day 7, cumulative dose: 1500 mg […]

[4] = tested on: PTH; test: Intact PTH sandwich immunoassay, trials IDA-04/IDA-05; type: in vivo, human; details: IDA-04 and IDA-05 combined
Description: The term “serum parathyroid hormone (PTH)” as used herein refers to the level of serum parathyroid hormone in blood serum as measured using a two-site sandwich immunoassay using direct chemiluminometric technology, which used constant amounts of two anti-human PTH antibodies. PTH, produced by the parathyroid gland, is the major circulating factor regulating extracellular calcium concentration. Abnormally low ionized calcium concentrations trigger the secretion of PTH. The PTH molecules bind to type 1 PTH receptors in target tissues and initiate a sequence of reactions that results in an increase in extracellular calcium concentrations. PTH stimulates osteoclastic bone resorption resulting in the release of calcium from bone. […]
The following safety laboratory assessments were analysed: • S-phosphate: inorganic phosphorous forms an ammonium phosphomolybdate complex having the formula (NH4)3[PO4](MoO3)12 with ammonium molybdate in the presence of sulfuric acid. The complex was determined photometrically in the ultraviolet region (340 nm) of the spectrum using the Roche Modular and Cobas Analyzer. • iFGF23 and cFGF23: the human intact FGF23 was measured by the 2nd generation Elisa kit manufactured by Immonotropics, Inc, San Clemente, CA. […] The human C-terminal FGF23 was measured by the Elisa kit manufactured by Immonotropics, Inc, San Clemente, CA. […]

1,25-dihydroxyvitamin D [1]: decrease
24,25-dihydroxyvitamin D [1]: increase
Fractional urinary excretion of phosphate [3]: significantly increased
PTH [4]: increase
Substance: ferric carboxymaltose [FCM]
iFGF23 levels [2]: temporarily increased
